This experiment concerns L1210 leukemia ip in BDF1 mice, survival T/C. The experiment in a line: NCI In Vivo Anticancer Drug Screen. Data for tumor model L1210 Leukemia (intraperitoneal) in B6D2F1 (BDF1) mice. Particulars: endpoint: mean survival time, higher = longer survival. Summed up:
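Transplantable tumor model; survival measured in treated vs vehicle control mice. Value = treated/control.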

Where [1] appears, read: dose: 100.0 mg/kg/injection, schedule: Q04DX002 (ip), vehicle: saline with Tween-80.
Where [2] appears, read: dose: 200.0 mg/kg/injection, schedule: Q04DX002 (ip), vehicle: saline with Tween-80.
Where [3] appears, read: dose: 100.0 mg/kg/injection, schedule: Q01DX009 (ip), vehicle: Klucel (hydroxypropylcellulose) (HPC).
Setting [4] is: dose: 100.0 mg/kg/injection, schedule: Q04DX003 (ip), vehicle: Klucel (hydroxypropylcellulose) (HPC).
The mark [5] stands for this setting: dose: 200.0 mg/kg/injection, schedule: Q01DX009 (ip), vehicle: Klucel (hydroxypropylcellulose) (HPC).
[6] abbreviates: dose: 200.0 mg/kg/injection, schedule: Q04DX003 (ip), vehicle: Klucel (hydroxypropylcellulose) (HPC).
Setting [7] is: dose: 400.0 mg/kg/injection, schedule: Q01DX009 (ip), vehicle: Klucel (hydroxypropylcellulose) (HPC).
The mark [8] stands for this setting: dose: 400.0 mg/kg/injection, schedule: Q04DX003 (ip), vehicle: Klucel (hydroxypropylcellulose) (HPC).
Where [9] appears, read: dose: 100.0 mg/kg/injection, schedule: Q01DX001 (ip), vehicle: saline.
Setting [10] is: dose: 100.0 mg/kg/injection, schedule: Q04DX002 (ip), vehicle: Klucel (hydroxypropylcellulose) (HPC).
The mark [11] stands for this setting: dose: 400.0 mg/kg/injection, schedule: Q04DX002 (ip), vehicle: Klucel (hydroxypropylcellulose) (HPC).
Setting [12] is: dose: 200.0 mg/kg/injection, schedule: Q01DX001 (ip), vehicle: saline.
The mark [13] stands for this setting: dose: 50.0 mg/kg/injection, schedule: Q01DX001 (ip), vehicle: saline.
Setting [14] is: dose: 400.0 mg/kg/injection, schedule: Q01DX001 (ip), vehicle: saline.

“And” between values parts separate entries of the source, which are not always exact repeats. Equal entries are not always repeated. Inconclusive results and toxic doses are left out.

Consider `C1CCC2C(C1)CC1CCCCC12` (stereo unspecified), for which the T/C reads like this: under setting [1], 101 % of control; under setting [2], 105 % of control; (dose: 400.0 mg/kg/injection, schedule: Q04DX002 (ip), vehicle: saline with Tween-80) 101 % of control.
For `CC(C)P(=O)(CCP(=O)(c1ccccc1)c1ccccc1)c1ccccc1` (stereo unspecified), the T/C was 106 % of control (dose: 50.0 mg/kg/injection, schedule: Q04DX002 (ip), vehicle: saline with Tween-80); 100 % of control under setting [1]; 87 % of control under setting [2].
For the compound `Cn1c(C=O)cc2ccccc21`, the T/C by setting is: (dose: 100.0 mg/kg/injection, schedule: Q01DX001 (ip), vehicle: carboxymethylcellulose (CMC)) 90 % of control; (dose: 100.0 mg/kg/injection, schedule: Q01DX009 (ip), vehicle: saline) 94 % of control; (dose: 100.0 mg/kg/injection, schedule: Q04DX002 (ip), vehicle: saline) 110 % of control; (dose: 200.0 mg/kg/injection, schedule: Q01DX001 (ip), vehicle: carboxymethylcellulose (CMC)) 98 % of control; (dose: 200.0 mg/kg/injection, schedule: Q01DX009 (ip), vehicle: saline) 97 % of control; (dose: 200.0 mg/kg/injection, schedule: Q04DX002 (ip), vehicle: saline) 104 % of control. For the same compound, the T/C was 102 % of control (dose: 400.0 mg/kg/injection, schedule: Q01DX001 (ip), vehicle: carboxymethylcellulose (CMC)) and 100 % of control (dose: 400.0 mg/kg/injection, schedule: Q04DX002 (ip), vehicle: saline).
For `CCCCNC(=O)C(F)(F)F`, the T/C (dose: 100.0 mg/kg/injection, schedule: Q01DX001 (ip), vehicle: other) was 100 % of control; the T/C (dose: 200.0 mg/kg/injection, schedule: Q01DX001 (ip), vehicle: other) was 98 % of control; the T/C (dose: 400.0 mg/kg/injection, schedule: Q01DX001 (ip), vehicle: other) was 98 % of control.
`CC(CC#N)OC(=O)c1cccc([N+](=O)[O-])c1` (stereo unspecified): the T/C is 91 % of control under setting [3]; 115 % of control under setting [4]; 93 % of control under setting [5]; 93 % of control under setting [6]; 98 % of control under setting [7]; 105 % of control under setting [8].
As to `O=S(=O)(OCC1CO1)c1ccc(Cl)c(Cl)c1` (stereo unspecified), the T/C (dose: 100.0 mg/kg/injection, schedule: Q01DX008 (ip), vehicle: Klucel (hydroxypropylcellulose) (HPC)) is 96 % of control; the T/C (dose: 200.0 mg/kg/injection, schedule: Q01DX008 (ip), vehicle: Klucel (hydroxypropylcellulose) (HPC)) is 102 % of control; the T/C (dose: 400.0 mg/kg/injection, schedule: Q01DX008 (ip), vehicle: Klucel (hydroxypropylcellulose) (HPC)) is 106 % of control.
Turning to `Clc1cc2nc3[nH]c4ccccc4c3nc2cc1Cl`, under setting [9], the T/C is 97 % of control.
Take `Cn1cnc2cc(N=Cc3ccc(N(CCCl)CCCl)cc3)ccc21`: the T/C was 106 % of control under setting [10]; 106 % of control (dose: 200.0 mg/kg/injection, schedule: Q04DX002 (ip), vehicle: Klucel (hydroxypropylcellulose) (HPC)); 109 % of control under setting [11].
As to `O=C(O)c1cccc(F)c1O`, the T/C by setting is: under setting [9], 97 % of control; under setting [12], 97 % of control.
As for `Cc1ccc(C(CO)(CO)OC(CO)(CO)c2ccc(C)c(C)c2)cc1C`, the T/C was 105 % of control under setting [13], 97 % of control under setting [9], 105 % of control under setting [12] and 105 % of control under setting [14].
Consider `CCN(CCO)CCNc1ccc(C)c2sc3ccccc3c(=O)c12`, for which the T/C is, setting by setting: (dose: 26.0 mg/kg/injection, schedule: Q01DX009 (ip), vehicle: saline) 110 % of control; (dose: 40.0 mg/kg/injection, schedule: Q01DX009 (ip), vehicle: saline) 122 % of control; under setting [13], 105 % of control; (dose: 60.0 mg/kg/injection, schedule: Q01DX009 (ip), vehicle: saline) 124 % of control; (dose: 78.0 mg/kg/injection, schedule: Q04DX003 (ip), vehicle: saline) 111 % of control; under setting [9], 116 % of control. The T/C by setting is: (dose: 114.0 mg/kg/injection, schedule: Q01DX001 (ip), vehicle: saline) 104 % of control; (dose: 114.0 mg/kg/injection, schedule: Q04DX003 (ip), vehicle: saline) 120 % of control; (dose: 135.0 mg/kg/injection, schedule: Q01DX009 (ip), vehicle: saline) 95 % of control; (dose: 174.0 mg/kg/injection, schedule: Q01DX001 (ip), vehicle: saline) 110 % of control; (dose: 174.0 mg/kg/injection, schedule: Q04DX003 (ip), vehicle: saline) 172 % of control; under setting [12], 121 % of control. Besides, under “dose: 260.0 mg/kg/injection, schedule: Q01DX001 (ip), vehicle: saline”, the T/C is 165 % of control.
Consider `COP(=O)(OC)C(OC(=O)C(C)(C)SC(C)=S)=C(C)C`, for which the T/C runs as follows: (dose: 100.0 mg/kg/injection, schedule: Q04DX003 (ip), vehicle: saline with Tween-80) 103 % of control; (dose: 200.0 mg/kg/injection, schedule: Q04DX003 (ip), vehicle: saline with Tween-80) 96 % of control; (dose: 400.0 mg/kg/injection, schedule: Q04DX003 (ip), vehicle: saline with Tween-80) 94 % of control.
Regarding `Cc1ccc(S(=O)(=O)N2CC(=O)CCc3ccc(Cl)cc32)cc1`, the T/C by setting is: (dose: 75.0 mg/kg/injection, schedule: Q01DX009 (ip), vehicle: other) 100 % of control; (dose: 150.0 mg/kg/injection, schedule: Q01DX009 (ip), vehicle: other) 100 % of control; (dose: 300.0 mg/kg/injection, schedule: Q01DX009 (ip), vehicle: other) 100 % of control.
Take `O=C(CCl)c1ccc([N+](=O)[O-])o1`: the T/C reads like this: (dose: 1.56 mg/kg/injection, schedule: Q01DX001 (ip), vehicle: Klucel (hydroxypropylcellulose) (HPC)) 98 % of control; (dose: 3.12 mg/kg/injection, schedule: Q01DX001 (ip), vehicle: Klucel (hydroxypropylcellulose) (HPC)) 95 % of control; (dose: 6.25 mg/kg/injection, schedule: Q01DX001 (ip), vehicle: Klucel (hydroxypropylcellulose) (HPC)) 96 % of control.
Regarding `NC(=O)NOCc1cscn1`, the T/C is 95 % of control under setting [9], 97 % of control under setting [12] and 97 % of control under setting [14].
As for `O=NO.O=N[O-].O=N[O-].[Co+3].[NH-]CC[N-]CCO.[NH-]CC[N-]CCO`, the T/C was 107 % of control (dose: 25.0 mg/kg/injection, schedule: Q01DX009 (ip), vehicle: water); 100 % of control (dose: 25.0 mg/kg/injection, schedule: Q04DX003 (ip), vehicle: water); 106 % of control and 107 % of control (dose: 50.0 mg/kg/injection, schedule: Q01DX009 (ip), vehicle: water); 103 % of control (dose: 50.0 mg/kg/injection, schedule: Q04DX003 (ip), vehicle: water); 111 % of control (dose: 100.0 mg/kg/injection, schedule: Q01DX009 (ip), vehicle: water); 98 % of control and 101 % of control (dose: 100.0 mg/kg/injection, schedule: Q04DX003 (ip), vehicle: water).
For `Cc1ccc(C(=O)CC(Sc2ccccc2N)c2cccc([N+](=O)[O-])c2)cc1` (stereo unspecified), the T/C runs as follows: (dose: 100.0 mg/kg/injection, schedule: Q01DX005 (ip), vehicle: Klucel (hydroxypropylcellulose) (HPC)) 93 % of control; under setting [3], 97 % of control; under setting [10], 98 % of control; (dose: 200.0 mg/kg/injection, schedule: Q01DX005 (ip), vehicle: Klucel (hydroxypropylcellulose) (HPC)) 96 % of control; under setting [5], 94 % of control; (dose: 400.0 mg/kg/injection, schedule: Q01DX005 (ip), vehicle: Klucel (hydroxypropylcellulose) (HPC)) 115 % of control. Also, the T/C was 97 % of control under setting [7] and 95 % of control under setting [11].
For `O=C1c2ccccc2C(=O)c2c(Nc3ccc(CCO)cc3)ccc(O)c21`, the T/C by setting is: under setting [3], 103 % of control; under setting [4], 102 % of control; under setting [5], 97 % of control; under setting [6], 100 % of control; under setting [7], 101 % of control; under setting [8], 102 % of control.

The values above are taken from PubChem BioAssay AID248 (DTP/NCI, 2004).
